Read-outs that look alike come from different tables or passages of the source.
Assays:
[1] = test system: Abeta oligomer-induced membrane trafficking deficits in primary hippocampal neurons; assay: Membrane trafficking/exocytosis (MTT) assay; assay type: cell-based, rat
Description: The methods used to generate the results were as follows in the Membrane Trafficking/Exocytosis (MTT) assay.
Primary hippocampal neurons from E18 Sprague-Dawley rat embryos were plated at optimized concentrations in 384 well plates in NB media (Invitrogen). Neurons were maintained in cultures for 3 weeks, with twice weekly feeding of NB media with N2 supplement (Invitrogen).
A test compound was added to cells at concentrations ranging from 100 uM to 0.001 nM followed by addition of vehicle or Abeta oligomer preparations (3 μM total Abeta protein concentration), and incubated for 1 to 24 hr at 37° C. in 5% CO2. MTT reagent (3-(4,5-dimethylthizaol-2-yl)-2,5diphenyl tetrazolium bromide) (Roche Molecular Biochemicals) was reconstituted in phosphate buffered saline to 5 mg/mL. 10 μl, of MTT labeling reagent is added to each well and incubated at 37° C. for 1 h, then imaged. Exocytosis was assessed by automated microscopy and image processing to quantify the amount of endocytosed and exocytosed formazan.
Each assay plate was formatted so that compounds are tested with and without Abeta oligomer on each plate.

sigma-2 receptor = target: T1, sigma-2 receptor (Rattus norvegicus, UniProt Q5U3Y7); set-up: other: known prior art compounds, published studies; settings: cited from earlier work
T1 sequence (Q5U3Y7 1-176): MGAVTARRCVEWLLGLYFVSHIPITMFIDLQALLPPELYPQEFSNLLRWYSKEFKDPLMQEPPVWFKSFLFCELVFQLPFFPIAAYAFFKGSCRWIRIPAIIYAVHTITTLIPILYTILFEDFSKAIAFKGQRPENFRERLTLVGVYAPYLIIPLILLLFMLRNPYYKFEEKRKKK

[2] = Drug-like properties of known compounds (BBB, oxidative metabolism); settings: (Oxidative substr.; Not BBB, Ox Sub.); first line given
Sigma-1 receptors [3] = settings: cited from earlier work; for Ki: Table 11E, clinical compounds, first figure of S1/S2, read-out: Sigma Affinity (S1); for Sigma 1 (Type of Activity): known prior art compounds
muscarinic M1-M4 = settings: cited from earlier work
Sigma-2 receptors = settings: cited from earlier work; for Ki: Table 11E, clinical compounds, second figure of S1/S2, read-out: Sigma Affinity (S2)
Na + ch2 = settings: cited from earlier work
NMDAR2B = NMDAR2B (Homo sapiens, UniProt Q13224); settings: cited from earlier work
[4] = list wraps over the rows below; first line given; cited from earlier work
Sigma-1 receptors [5] = target: T2, Sigma-1 receptors (UniProt Q60492); settings: cited from earlier work
T2 construct: other: known prior art compounds, published studies

Adrenergic transporter = Adrenergic transporter (Homo sapiens, UniProt P23975); settings: cited from earlier work
Dopamine transporter = Dopamine transporter (Homo sapiens, UniProt Q01959); settings: cited from earlier work
serotonin transporter = serotonin transporter (Homo sapiens, UniProt P31645); settings: cited from earlier work
[6] = test system: Abeta oligomer-induced synapse loss in primary hippocampal neurons; assay: Synapse loss assay; assay type: cell-based, rat
Description: In this assay, Abeta oligomers were brought in contact with mature primary neurons in culture and their binding was determined by immunohistochemistry (anti-Abeta antibody) and quantified by image processing. The amount of Abeta in neuronal dendrites is assessed by counting the number of labeled puncta on the neuritis. […] This labeling is associated with synapses, co-localizing with the post-synaptic scaffold protein PSD-95 (Lacor et al., '04). […] The number of synapses can also be quantified in this assay by immunofluorochemistry. Similar procedures for binding assays can be found in the literature. […] Review.
Primary hippocampal neuronal culture was established as in the membrane trafficking assay above. […] Pretreatment with compounds to be tested lasted for 1 hr and addition of Abeta oligomers or no oligomer (vehicle alone) in a final concentration of 70 ul was followed by incubation for an additional 23 hrs.
The plates were then washed 3× with PBS for 5 min each. The plates were blocked at RT for 1 hr in 5% goat serum and 0.5% Triton X-100 in PBS. […] Primary antibodies were incubated overnight at 4° C. The plates were then washed 3× with PBS for 5 min each. […] Secondary antibodies were incubated at RT for 1 hr. The plates were washed once with PBS. DAPI (4′,6-diamidino-2-phenylindole, Invitrogen) was then applied at 0.03 ug/ul and incubated at RT for 5 min, then washed with PBS.

alpha 1A, 1B = settings: cited from earlier work
5-HT2A, B, C = settings: cited from earlier work
NMDAR2A = NMDAR2A (Homo sapiens, UniProt Q12879); settings: cited from earlier work
PCP = settings: cited from earlier work
[7] = test system: SKOV-3 human ovarian cancer cell line; assay: MTS tumor cell viability assay; assay type: cell-based
Description: The cytotoxicity of compounds shown below was determined using the CellTiter96 Aqueous One Solution Assay (Promega, Madison, Wis.). […] The plate was read at 490 nm in a Victor3 plate reader (PerkinElmer Life and Analytical Sciences, Shelton, Conn.). The EC^50 value, defined as the concentration of the sigma ligand required to inhibit cell viability by 50% relative to untreated cells, was determined from the dose response curve for each cell line.

[8] = test system: caspase-3 in SKOV-3 human ovarian cancer cells; assay: Caspase-3 activity in tumor cells; assay type: cell-based
[9] = test system: caspase-3 in neuronal cultures; assay: Caspase-3 activity in neurons; assay type: cell-based
K+ ch = settings: b58; cited from earlier work
[10] = Table 11C, known prior art compounds, read-out: Inhibition Abeta oligomer-induced Membrane Trafficking EC50
[11] = Table 11D, read-out: Membrane trafficking IC50
[12] = Table 11C, read-out: S2 binding Ki
[13] = Table 11D, read-out: Sigma-2 Receptor Ki
[14] = known prior art compounds, published studies, read-out: Sigma 2 Binding Ki
[15] = Table 11C, read-out: S1 binding Ki
[16] = Table 11D, read-out: Sigma-1 Receptor Ki
[17] = known prior art compounds, published studies, read-out: Sigma 1 Binding Ki
[18] = Rattus norvegicus, Hippocampal neuron, Table 11C, known prior art compounds, read-out: Inhibition Abeta oligomer-induced Membrane Trafficking EC50
[19] = read-out: S2 binding Ki, Table 11C

NMDAR2B, sequence (Q13224 27-1484, species assumed, other chains not shown): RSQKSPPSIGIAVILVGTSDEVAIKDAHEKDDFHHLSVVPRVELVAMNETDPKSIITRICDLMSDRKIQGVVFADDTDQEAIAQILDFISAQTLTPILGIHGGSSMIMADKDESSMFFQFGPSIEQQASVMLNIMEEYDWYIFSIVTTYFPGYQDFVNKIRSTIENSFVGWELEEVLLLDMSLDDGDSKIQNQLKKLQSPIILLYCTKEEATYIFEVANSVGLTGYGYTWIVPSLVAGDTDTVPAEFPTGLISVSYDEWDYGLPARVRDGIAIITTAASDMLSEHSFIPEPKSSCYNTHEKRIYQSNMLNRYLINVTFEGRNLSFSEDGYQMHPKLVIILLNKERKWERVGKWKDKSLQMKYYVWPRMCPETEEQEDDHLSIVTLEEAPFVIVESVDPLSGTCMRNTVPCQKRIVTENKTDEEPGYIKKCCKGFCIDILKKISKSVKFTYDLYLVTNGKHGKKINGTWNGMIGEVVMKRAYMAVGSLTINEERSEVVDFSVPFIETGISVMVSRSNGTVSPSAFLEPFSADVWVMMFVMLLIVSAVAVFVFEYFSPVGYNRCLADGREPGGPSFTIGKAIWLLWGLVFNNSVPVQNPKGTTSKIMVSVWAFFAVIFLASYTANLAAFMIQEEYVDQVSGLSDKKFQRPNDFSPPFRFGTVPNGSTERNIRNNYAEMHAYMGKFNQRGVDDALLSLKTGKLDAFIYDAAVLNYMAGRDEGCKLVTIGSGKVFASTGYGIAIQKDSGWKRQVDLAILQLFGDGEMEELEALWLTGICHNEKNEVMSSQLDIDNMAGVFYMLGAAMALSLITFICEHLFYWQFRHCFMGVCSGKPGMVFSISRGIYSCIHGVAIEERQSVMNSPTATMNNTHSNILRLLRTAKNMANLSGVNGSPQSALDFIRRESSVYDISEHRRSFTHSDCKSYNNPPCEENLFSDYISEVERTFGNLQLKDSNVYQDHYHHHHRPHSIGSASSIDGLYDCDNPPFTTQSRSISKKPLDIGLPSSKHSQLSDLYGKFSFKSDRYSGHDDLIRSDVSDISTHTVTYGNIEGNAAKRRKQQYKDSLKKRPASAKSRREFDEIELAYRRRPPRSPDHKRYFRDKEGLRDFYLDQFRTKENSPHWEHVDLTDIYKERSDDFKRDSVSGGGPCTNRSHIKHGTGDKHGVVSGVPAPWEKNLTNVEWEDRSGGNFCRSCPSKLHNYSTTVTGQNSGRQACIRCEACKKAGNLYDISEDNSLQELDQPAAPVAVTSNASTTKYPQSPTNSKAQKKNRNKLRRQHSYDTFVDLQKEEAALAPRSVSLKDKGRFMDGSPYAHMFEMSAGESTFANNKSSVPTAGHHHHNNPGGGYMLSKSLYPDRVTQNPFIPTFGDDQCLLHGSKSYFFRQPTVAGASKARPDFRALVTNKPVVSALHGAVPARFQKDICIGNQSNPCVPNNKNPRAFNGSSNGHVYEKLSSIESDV
NMDAR2A, sequence (Q12879 23-1464, other chains not shown): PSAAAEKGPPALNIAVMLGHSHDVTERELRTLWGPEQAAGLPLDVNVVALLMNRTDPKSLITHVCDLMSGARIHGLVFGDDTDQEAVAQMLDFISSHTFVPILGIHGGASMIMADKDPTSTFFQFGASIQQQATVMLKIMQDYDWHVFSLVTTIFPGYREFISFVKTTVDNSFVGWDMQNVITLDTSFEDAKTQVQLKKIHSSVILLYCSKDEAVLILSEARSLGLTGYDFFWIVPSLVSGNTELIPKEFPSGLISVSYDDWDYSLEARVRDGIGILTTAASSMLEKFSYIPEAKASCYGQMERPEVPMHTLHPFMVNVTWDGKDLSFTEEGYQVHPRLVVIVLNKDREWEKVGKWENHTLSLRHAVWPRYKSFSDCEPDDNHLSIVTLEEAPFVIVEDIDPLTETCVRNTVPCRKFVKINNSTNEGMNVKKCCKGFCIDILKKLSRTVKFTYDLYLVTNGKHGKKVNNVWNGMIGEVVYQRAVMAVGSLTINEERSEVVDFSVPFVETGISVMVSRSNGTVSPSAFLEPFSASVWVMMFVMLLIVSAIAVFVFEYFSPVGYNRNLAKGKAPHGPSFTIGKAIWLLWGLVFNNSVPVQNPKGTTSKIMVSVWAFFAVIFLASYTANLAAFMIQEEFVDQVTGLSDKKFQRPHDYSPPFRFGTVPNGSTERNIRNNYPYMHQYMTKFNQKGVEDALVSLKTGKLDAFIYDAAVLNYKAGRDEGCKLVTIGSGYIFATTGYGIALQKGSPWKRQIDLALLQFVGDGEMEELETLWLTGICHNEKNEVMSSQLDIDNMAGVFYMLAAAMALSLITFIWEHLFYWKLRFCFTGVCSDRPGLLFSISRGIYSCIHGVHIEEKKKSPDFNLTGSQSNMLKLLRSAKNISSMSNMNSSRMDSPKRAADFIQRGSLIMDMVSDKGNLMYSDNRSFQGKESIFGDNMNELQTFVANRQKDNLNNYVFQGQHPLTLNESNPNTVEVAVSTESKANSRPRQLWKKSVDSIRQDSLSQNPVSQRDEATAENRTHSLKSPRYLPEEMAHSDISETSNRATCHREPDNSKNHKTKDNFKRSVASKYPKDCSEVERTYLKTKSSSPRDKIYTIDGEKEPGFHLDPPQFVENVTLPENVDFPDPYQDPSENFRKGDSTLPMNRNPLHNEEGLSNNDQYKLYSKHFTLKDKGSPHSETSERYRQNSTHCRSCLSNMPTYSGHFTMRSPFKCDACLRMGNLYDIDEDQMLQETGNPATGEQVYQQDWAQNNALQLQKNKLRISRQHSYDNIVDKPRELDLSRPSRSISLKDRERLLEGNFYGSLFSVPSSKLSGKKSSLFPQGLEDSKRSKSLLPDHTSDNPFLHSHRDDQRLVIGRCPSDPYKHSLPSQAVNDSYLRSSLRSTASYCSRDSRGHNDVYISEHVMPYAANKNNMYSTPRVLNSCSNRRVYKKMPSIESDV
Dopamine transporter, sequence (Q01959 whole entry): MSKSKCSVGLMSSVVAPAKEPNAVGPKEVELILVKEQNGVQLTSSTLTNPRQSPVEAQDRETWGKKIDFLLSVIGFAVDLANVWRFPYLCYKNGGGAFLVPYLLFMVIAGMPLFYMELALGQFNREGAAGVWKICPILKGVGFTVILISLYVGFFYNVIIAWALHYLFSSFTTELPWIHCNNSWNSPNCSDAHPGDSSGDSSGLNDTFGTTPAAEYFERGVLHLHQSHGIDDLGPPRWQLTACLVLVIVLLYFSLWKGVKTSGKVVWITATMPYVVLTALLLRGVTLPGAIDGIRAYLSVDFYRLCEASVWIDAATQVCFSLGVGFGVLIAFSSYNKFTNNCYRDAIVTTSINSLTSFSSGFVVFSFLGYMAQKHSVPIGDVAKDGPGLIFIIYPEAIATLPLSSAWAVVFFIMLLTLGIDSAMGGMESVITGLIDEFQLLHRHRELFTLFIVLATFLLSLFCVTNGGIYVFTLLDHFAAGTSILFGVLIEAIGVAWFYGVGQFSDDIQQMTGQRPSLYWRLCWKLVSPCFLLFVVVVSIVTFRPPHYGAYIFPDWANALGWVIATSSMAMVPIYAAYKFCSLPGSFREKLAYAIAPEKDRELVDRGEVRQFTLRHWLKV
Adrenergic transporter, sequence (P23975 whole entry): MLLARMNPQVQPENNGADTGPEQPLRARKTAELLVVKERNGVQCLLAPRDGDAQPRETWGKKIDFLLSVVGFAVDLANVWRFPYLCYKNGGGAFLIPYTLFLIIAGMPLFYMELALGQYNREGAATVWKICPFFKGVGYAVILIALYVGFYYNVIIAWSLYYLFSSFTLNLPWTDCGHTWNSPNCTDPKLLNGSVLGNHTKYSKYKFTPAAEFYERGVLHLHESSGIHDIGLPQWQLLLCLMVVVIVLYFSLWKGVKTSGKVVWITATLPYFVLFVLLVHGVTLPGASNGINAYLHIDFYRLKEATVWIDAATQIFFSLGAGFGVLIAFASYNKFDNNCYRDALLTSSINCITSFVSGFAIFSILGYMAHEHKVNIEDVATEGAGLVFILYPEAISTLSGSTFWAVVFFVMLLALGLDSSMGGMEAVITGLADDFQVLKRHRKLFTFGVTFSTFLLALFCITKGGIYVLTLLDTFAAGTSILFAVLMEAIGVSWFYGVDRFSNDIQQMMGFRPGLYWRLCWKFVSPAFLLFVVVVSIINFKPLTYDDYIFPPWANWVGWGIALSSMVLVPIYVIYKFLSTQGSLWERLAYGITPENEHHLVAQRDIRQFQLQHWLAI
serotonin transporter, sequence (P31645 whole entry): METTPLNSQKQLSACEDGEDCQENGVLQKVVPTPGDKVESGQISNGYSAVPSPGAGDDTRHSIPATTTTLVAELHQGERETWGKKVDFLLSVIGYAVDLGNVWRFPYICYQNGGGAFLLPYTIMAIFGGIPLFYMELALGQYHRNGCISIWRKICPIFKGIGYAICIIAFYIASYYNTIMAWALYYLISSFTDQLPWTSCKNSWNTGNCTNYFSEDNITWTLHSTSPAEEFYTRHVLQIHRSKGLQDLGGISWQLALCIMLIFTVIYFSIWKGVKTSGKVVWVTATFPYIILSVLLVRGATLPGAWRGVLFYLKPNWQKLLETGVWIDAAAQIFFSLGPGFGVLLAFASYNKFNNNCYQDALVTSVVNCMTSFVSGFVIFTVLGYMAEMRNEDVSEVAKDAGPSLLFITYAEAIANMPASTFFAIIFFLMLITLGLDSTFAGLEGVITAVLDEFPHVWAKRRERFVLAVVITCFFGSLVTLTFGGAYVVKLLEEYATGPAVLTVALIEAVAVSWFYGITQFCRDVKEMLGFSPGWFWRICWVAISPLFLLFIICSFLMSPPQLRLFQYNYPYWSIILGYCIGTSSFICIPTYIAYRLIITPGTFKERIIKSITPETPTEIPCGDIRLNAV

CC(C)=CCN1CCC2(C)c3cc(O)ccc3CC1C2C (single isomer, unassigned; (+)) [(+) Pentazocine, (+)-pentazocine]
IC50 ([1]; Rattus norvegicus, Hippocampal neuron, read-out: Membrane trafficking IC50 (uM)): 7.6 µM
Functional Neuronal Phenotype ([1]; Table 11D): Antagonist
Ki (sigma-2 receptor; read-out: Sigma-2 Receptor Ki, Table 11D): > 5000 nM
Drug-like properties [2]: Yes

CN(C)CC1COC(c2ccccc2)(c2ccccc2)C1 (stereo not shown) [Anavex 1-41]
Ki (Sigma-1 receptors [3]): 7 nM
Other Targets: muscarinic M1-M4 (muscarinic M1-M4): (18-114 nM), Na +
Ki (Sigma-2 receptors): > 10000 nM
Other Targets: Na + ch2 (Na + ch2): ch2 (>10 uM)

CN(C)CC1CCOC1(c1ccccc1)c1ccccc1 (stereo not shown) [Anavex 2-73]
Ki (Sigma-1 receptors [3]): 860 nM
Other Targets: muscarinic M1-M4 (muscarinic M1-M4): (3-5 uM),
Ki (Sigma-2 receptors): > 20000 nM
Other Targets: Na + ch2 (Na + ch2): (5 uM)
Other Targets: NMDAR2B (NMDAR2B): NMDAR2B (8 uM

CN(C)CCN(C)CCc1ccc(Cl)c(Cl)c1 [BD1047]
Selectivity other activities [4]: D2, β3-AR
Max Inhibition of Abeta (%) [1]: 100%
Functional Neuronal Phenotype ([1]; Table 11C): Antagonist
EC50 [1, 10]: 2.4 µM
Functional Neuronal Phenotype ([1]; Table 11D): Antagonist
IC50 [1, 11]: 2.4 µM
Ki (sigma-2 receptor; [12]): 47 nM
Ki (sigma-2 receptor; [13]): 47 nM
Ki (sigma-2 receptor; [14]): 47 nM
Sigma 1 (Type of Activity) (Sigma-1 receptors [3]): (antagonist)
Ki (Sigma-1 receptors [5]; [15]): 0.9 nM
Ki (Sigma-1 receptors [5]; [16]): 0.9 nM
Ki (Sigma-1 receptors [5]; [17]): 0.9 nM

COCCCC/C(=N\OCCN)c1ccc(C(F)(F)F)cc1 [Fluvoxamine, fluvoxamine]
Other Targets: Adrenergic transporter (Adrenergic transporter): transporter (299 nM
EC50 [1, 18]: 2.5 µM
IC50 ([1]; Rattus norvegicus, Hippocampal neuron, Table 11D, read-out: Membrane trafficking IC50): 2.5 µM
Functional Neuronal Phenotype ([1]; Table 11C): Antagonist
Functional Neuronal Phenotype ([1]; Table 11D): Antagonist
Sigma 1 (Type of Activity) (Sigma-1 receptors [3]): (agonist)
Ki (Sigma-1 receptors [5]; [15]): 13 nM
Ki (Sigma-1 receptors [5]; [16]): 13 nM
Ki (Sigma-1 receptors [5]; [17]): 13 nM
Ki (Sigma-2 receptors): 710 nM
Other Targets: Dopamine transporter (Dopamine transporter): transporter (1.5 nM
Other Targets: serotonin transporter (serotonin transporter): nM), Serotonin (12

O=C(CCCN1CCC(O)(c2ccc(Cl)cc2)CC1)c1ccc(F)cc1 [Haloperidol, haloperidol]
Max Inhibition of Abeta (%) [1]: 100%
Functional Neuronal Phenotype ([1]; Table 11C): Antagonist
Functional Neuronal Phenotype ([1]; Table 11D): Antagonist
Sigma 1 (Type of Activity) (Sigma-1 receptors [3]): (antagonist)
Drug-like properties [2]: Yes
Effect on Abeta oligomer-induced synapse loss [6]: completely eliminated synapse loss

OCCN1CCN(CCCN2c3ccccc3C=Cc3ccccc32)CC1 [Opipramol]
Other Targets: alpha 1A, 1B (alpha 1A, 1B): 1A, 1B(200 nM)
Ki (Sigma-1 receptors [3]): 7 nM
Other Targets: 5-HT2A, B, C (5-HT2A, B, C): 5-HT2A, B, C (120 nM
Ki (Sigma-2 receptors): 56 nM

CC(C)=CCN1CCC2(C)c3cc(O)ccc3CC1C2C (stereo not shown) [Pentazocine, pentazocine]
EC50 ([1]; Rattus norvegicus, Hippocampal neuron, read-out: Inhibition Abeta oligomer-induced Membrane Trafficking EC50 (uM)): 7.6 µM
Functional Neuronal Phenotype ([1]; Table 11C): Antagonist
Other Targets: 2A (NMDAR2A) (NMDAR2A): uM), 2A (2.7 uM),
Ki (sigma-2 receptor; [19]): > 5000 nM
Other Targets: PCP (PCP): PCP (2.9 uM)
Ki (Sigma-2 receptors): 5000 nM
Other Targets: NMDAR2B (NMDAR2B): NMDAR2B (2.5 uM

CCC(Oc1ccc(Cl)cc1)C(=O)OC1CC2CCC(C1)N2C (stereo not shown) [SM-21]
Selectivity other activities [4]: Muscarinic
Max Inhibition of Abeta (%) [1]: 65%
Functional Neuronal Phenotype ([1]; Table 11C): Antagonist
EC50 [1, 10]: 2.2 µM
Functional Neuronal Phenotype ([1]; Table 11D): Antagonist
IC50 [1, 11]: 2.2 µM
Ki (sigma-2 receptor; [12]): 145 nM
Ki (sigma-2 receptor; [13]): 145 nM
Ki (sigma-2 receptor; [14]): 145 nM
Sigma 1 (Type of Activity) (Sigma-1 receptors [3]): (antagonist)
Ki (Sigma-1 receptors [5]; [15]): 1050 nM
Ki (Sigma-1 receptors [5]; [16]): 1050 nM
Ki (Sigma-1 receptors [5]; [17]): 1050 nM
Abeta oligomer-induced synapse loss eliminated / recovery ([6]; b801): 20%

COc1ccc(C)cc1NC(=O)OC1CC2CCCC(C1)N2CCCCCCN (stereo not shown) [SV-119]
Effect on Abeta oligomer trafficking deficits over the concentrations tested [1]: blocks Abeta oligomer trafficking deficits at low concentrations, but causes cellular toxicity at high concentrations
EC50 [1, 18]: 2.6 µM
Functional Neuronal Phenotype ([1]; Table 11C): Agonist
Ki (sigma-2 receptor; [19]): 8 nM
Ki (Sigma-1 receptors [5]; [15]): 1400 nM
IC50 ([7]; Homo sapiens, SK-OV-3, tumor cell viability, 48 hrs): 21700 ± 2900 nM
Action ([7]; by EC50 relative to siramesine): Full agonist
Caspase-3 activity induced in tumor cells [8]: caspase-3 activation
Caspase-3 activity induced in neurons [9]: caspase-3 activation
Nuclear morphology / nuclear intensity in neurons (neuronal cultures): caused significant abnormal nuclear morphology

C[C@@H]([C@@H](O)c1ccc(O)cc1)N1CCC(Cc2ccccc2)CC1 [Threo-ifenprodil (TIF), Threo-ifenprodil]
Effect on Abeta oligomer trafficking deficits over the concentrations tested [1]: does not cause apoptosis, affect trafficking or interfere with Abeta oligomer-induced trafficking deficits when dosed alone
Max Inhibition of Abeta (%) [1]: 39%
Functional Neuronal Phenotype ([1]; Table 11C): Inactive
EC50 [1, 10]: > 20 µM
Sigma 2 type of activity (Sigma-2 receptors; in brackets after the Ki): agonist
Affinity K+ ch (K+ ch): 88 nM
